Target: T1, human GPR68 (Homo sapiens, UniProt Q15743)
T1 construct: encoding full-length human GPR68 (uniprot ID: Q15743); expressed in transfected cells; host or cells: HEK293T
Assay: GPR68 Biochemical Assay (Promega GloSensor cAMP assay, GPR68 antagonism)
Assay type: cell-based
Conditions: HEK293T cells transiently expressing hGPR68, antagonism of pH 5.5 stimulated cAMP, 15 min, read-out: hGPR68 IC50
Outline: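 HEK293T cells transiently co-transfected with full-length human GPR68 and GloSensor plasmids, preloaded 60 min with GloSensor substrate in pH 8.0 buffer. Compounds (9-point half-log series, top 50 μM final, 0.5% DMSO) added with pH 5.5 buffer (~EC80-90 stimulation); luminescence read after 15 min at room temperature. IC50 from sigmoidal fit of % inhibition.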

T1 sequence (Q15743 whole entry): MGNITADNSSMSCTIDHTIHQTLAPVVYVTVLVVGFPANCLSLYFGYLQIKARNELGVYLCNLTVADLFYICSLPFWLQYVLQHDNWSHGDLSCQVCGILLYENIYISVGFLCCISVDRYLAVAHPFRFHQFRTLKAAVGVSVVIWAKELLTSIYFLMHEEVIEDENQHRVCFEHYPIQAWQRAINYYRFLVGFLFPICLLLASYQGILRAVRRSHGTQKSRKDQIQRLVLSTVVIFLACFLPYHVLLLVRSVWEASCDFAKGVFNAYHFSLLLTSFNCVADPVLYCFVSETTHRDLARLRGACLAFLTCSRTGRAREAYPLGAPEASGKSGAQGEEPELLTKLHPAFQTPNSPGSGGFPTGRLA

| Structure (SMILES) | IC50 [nM] |
| --- | --- |
| COCc1nn2c(C(=O)NCc3ccc(O)cc3)ccnc2c1C(N)=O [Compound 197, N7-[(4-hydroxyphenyl)methyl]-2-(methoxymethyl)pyrazolo[1,5-a]pyrimidine-3,7-dicarboxamide] | 500 to 5000 |
| COCc1nn2c(C(=O)NCc3ccccc3OC)ccnc2c1C(N)=O [Compound 199, 2-(methoxymethyl)-N7-[(2-methoxyphenyl)methyl]pyrazolo[1,5-a]pyrimidine-3,7-dicarboxamide] | 50 to 500 |
| COCc1nn2c(C(=O)N[C@@H]3CCCc4ccccc43)ccnc2c1C(N)=O [Compound 74, 2-(methoxymethyl)-N7-[(1R)-tetralin-1-yl]pyrazolo[1,5-a]pyrimidine-3,7-dicarboxamide] | < 50 |
| N#C[C@H]1C[C@@H](NC(=O)c2ccnc3c(C(N)=O)cnn23)C1 [Compound 9, N7-(cis-3-cyanocyclobutyl)pyrazolo[1,5-a]pyrimidine-3,7-dicarboxamide] | 500 to 5000 |
| COCc1nn2c(C(=O)NCc3cnn(C)c3)ccnc2c1C(N)=O [Compound 63, 2-(methoxymethyl)-N7-[(1-methylpyrazol-4-yl)methyl]pyrazolo[1,5-a]pyrimidine-3,7-dicarboxamide] | 500 to 5000 |
| COCc1nn2c(C(=O)NCc3ccccc3)ccnc2c1C(N)=O [Compound 69, N7-benzyl-2-(methoxymethyl)pyrazolo[1,5-a]pyrimidine-3,7-dicarboxamide] | 50 to 500 |
| NC(=O)c1cnn2c(C(=O)NC3Cc4cccc(-c5ccccn5)c4C3)ccnc12 (centres unmarked) [Compound 17, N7-[4-(2-pyridyl)indan-2-yl]pyrazolo[1,5-a]pyrimidine-3,7-dicarboxamide] | 50000 to 100000 |
| COCc1nn2c(C(=O)NC3Cc4cc(F)c(F)cc4C3)ccnc2c1C(N)=O [Compound 195, N7-(5,6-difluoroindan-2-yl)-2-(methoxymethyl)pyrazolo[1,5-a]pyrimidine-3,7-dicarboxamide] | < 50 |
| NC(=O)c1c(C2CC2)nc2c(C(=O)NC3Cc4cscc4C3)ccnn12 [Compound 208, 2-cyclopropyl-N8-(5,6-dihydro-4H-cyclopenta[c]thiophen-5-yl)imidazo[1,2-b]pyridazine-3,8-dicarboxamide] | < 50 |
| COCc1nn2c(C(=O)NC3CC(F)(F)c4ccccc43)ccnc2c1C(N)=O (single isomer, unassigned) [Compound 173, N7-(3,3-difluoroindan-1-yl)-2-(methoxymethyl)pyrazolo[1,5-a]pyrimidine-3,7-dicarboxamide] | < 50 |

Same assay, conditions: hGPR68 IC50, HEK293T cells transiently expressing hGPR68, antagonism of pH 5.5 stimulated cAMP, 15 min

| Structure (SMILES) | IC50 [nM] |
| --- | --- |
| NC(=O)c1c(CO)nn2c(C(=O)N[C@H]3C[C@@H](OC(F)(F)F)C3)ccnc12 [Compound 141, 2-(hydroxymethyl)-N7-[cis-3-(trifluoromethoxy)cyclobutyl]pyrazolo[1,5-a]pyrimidine-3,7-dicarboxamide] | < 50 |
